Laboratory results: paper PMC4026384, “Antibacterial Activity of THAM Trisphenylguanide against Methicillin-Resistant Staphylococcus aureus” (PLoS ONE, 2014)
In brackets after ≈: the same amount, converted by molar mass. Entries after “also recorded” stand apart in the source; their conditions may differ. Read-outs that look alike come from different tables or passages of the source.

Experiments:
[1] = system: MRSA strain LAC, USA300; test: Minimum inhibitory concentration (microdilution); format: cell-based, Staphylococcus aureus; settings: assay described in Material and Methods; controls of the MRSA leakage assay (Figure S2)
Protocol: Minimum inhibitory concentration (MIC) values were determined for those compounds showing the most antibacterial activity in the bacterial viability assays (see Supplemental Materials) against each of the strains of bacteria using a microdilution method in 96 well plates with LB media according to guidelines published by the British Society for Antimicrobial Chemotherapy. Minimum bactericidal concentrations (MBC) were determined by plating 10 µL and 100 µL from each well showing no signs of growth after overnight incubation of the MIC plates and determining the minimum concentration showing a 3-log reduction of viable bacteria. MIC and MBC were also determined in cation-adjusted Mueller-Hinton broth (Hardy Diagnostics, Santa Maria, CA) for some compounds and strains.

[2] = system: MRSA; test: Cytoplasmic leakage & bacteriolysis assay; format: cell-based, Staphylococcus aureus; settings: 1× to 4×MIC, over the 3 hour period
Protocol: Bacteria were cultured to mid-log phase (OD600 ∼0.4) in LB media with shaking. Bacteria were then harvested and resuspended in PBS to a concentration of ∼10^8 CFU/mL. […] Bacteria were monitored over time for cytoplasmic leakage via A260 measurements and for cell viability. For A260 readings, sample aliquots were centrifuged for 5 min at 10,000×g at room temperature to remove cellular debris. Viability was monitored by determining the CFU/mL during the first 3 hours post treatment as described above for the kill curve assays.

[3] = system: S. aureus RN4220; test: Bacterial viability assay; format: cell-based, Staphylococcus aureus; settings: one hour in PBS, CFU, ± SEM
Protocol: (§1) Supplementary file pone.0097742.s003.doc: Table S1 Bacterial viability assays. Bacteria were grown at 37°C to mid-log phase (OD600 ∼0.4). The bacteria were diluted to approximately 10^4 to 10^5 colony forming units (CFU) per milliliter and added to a solution of phosphate buffered saline (PBS, 16 mM phosphate, 0.14 M NaCl, pH 7.2) containing the compound at varied concentrations. Samples were incubated at 37°C for one hour and then plated on Luria Bertani (LB) agar at appropriate dilutions in PBS. The plates were incubated overnight at 37°C and colonies enumerated the following day. IC50s were calculated from graphs of CFU as a function of compound concentration. Chlorhexidine was used as a positive control. Included are those guanide (G), biguanide (BG), phenylguanide (ΦG) compounds that had some antibacterial activity in an initial screen at 30 and 100 µM, as well as their and parent amines. Compounds synthesized from 1,4-butanediamine, 1,6-hexanediamine, trisethylaminomelamine, trisbutylaminomelamine, and the dendrimer PAMAM (G0) were not active against E. coli, P aeruginosa, or S. aureus so they were not tested against the remaining bacteria (data not shown). (DOC) Click here for additional data file.
as §1, with “Bacterial” for “Supplementary file pone.0097742.s003.doc: Table S1 Bacterial”, “~0.4).” for “∼0.4).”, “μM,” for “µM,”, “shown).” for “shown). (DOC) Click here for additional data file.”

[4] = system: MRSA USA300; test: Bacterial viability assay; format: cell-based, Staphylococcus aureus; settings: one hour in PBS, CFU, ± SEM
Protocol: (§2) Supplementary file pone.0097742.s003.doc: Table S1 Bacterial viability assays. Bacteria were grown at 37°C to mid-log phase (OD600 ∼0.4). The bacteria were diluted to approximately 10^4 to 10^5 colony forming units (CFU) per milliliter and added to a solution of phosphate buffered saline (PBS, 16 mM phosphate, 0.14 M NaCl, pH 7.2) containing the compound at varied concentrations. Samples were incubated at 37°C for one hour and then plated on Luria Bertani (LB) agar at appropriate dilutions in PBS. The plates were incubated overnight at 37°C and colonies enumerated the following day. IC50s were calculated from graphs of CFU as a function of compound concentration. Chlorhexidine was used as a positive control. […] (DOC) Click here for additional data file.
(§3) Bacterial viability assays. Bacteria were grown at 37°C to mid-log phase (OD600 ~0.4). The bacteria were diluted to approximately 10^4 to 10^5 colony forming units (CFU) per milliliter and added to a solution of phosphate buffered saline (PBS, 16 mM phosphate, 0.14 M NaCl, pH 7.2) containing the compound at varied concentrations. Samples were incubated at 37°C for one hour and then plated on Luria Bertani (LB) agar at appropriate dilutions in PBS. The plates were incubated overnight at 37°C and colonies enumerated the following day. IC50s were calculated from graphs of CFU as a function of compound concentration. Chlorhexidine was used as a positive control.

[5] = system: A. baumannii ATCC 19606; test: Bacterial viability assay; format: cell-based, Acinetobacter baumannii; settings: one hour in PBS, CFU, ± SEM
Protocol: as §2, §3

[6] = system: A. baumannii ATCC BAA1605; test: Bacterial viability assay; format: cell-based, Acinetobacter baumannii; settings: one hour in PBS, CFU, ± SEM
Protocol: as §2, §3

[7] = Cell toxicity assay (MTS); format: cell-based, human; settings: human, MTS assay, concentration which killed 50% of the cells
Protocol: (§4) The HaCaT cell line was grown in Epilife medium (MEPI500Ca) with human keratinocyte growth supplement (Invitrogen, San Diego, CA). Both types of cells were harvested using Tryspin/EDTA and diluted to 1×10^5 cells per well in a 96-well plate. Ten concentrations covering five orders of magnitude were tested with six replicates per concentration. […] MTS/PMS solution (Promega, Madison, WI) was added to the wells and absorbance was measured at 490 nm two to four hours later. Data was analyzed using GraphPad Prism version 5.0 (GraphPad Software, La Jolla, CA) using a variable slope inhibition dose response curve.

[8] = system: human breast cancer cell line MDA-MB-231; test: Cell toxicity assay (MTS); format: cell-based; settings: MDA-231
Protocol: as §4

[9] = system: HaCaT human keratinocytes; test: Cell toxicity assay (MTS); format: cell-based; settings: for CC50: MTS assay, concentration which killed 50% of the cells
Protocol: as §4

[10] = system: E. faecalis V583; test: Bacterial viability assay; format: cell-based, Enterococcus faecalis; settings: one hour in PBS, CFU, ± SEM
Protocol: as §2, §3

[11] = system: E. faecalis MSU#10; test: Bacterial viability assay; format: cell-based, Enterococcus faecalis; settings: E. faecalis MSU#10, one hour in PBS, CFU, ± SEM, read-out: IC50
Protocol: as §2, §3

[12] = system: P. aeruginosa PA01; test: Bacterial viability assay; format: cell-based, Pseudomonas aeruginosa; settings: one hour in PBS, CFU, ± SEM
Protocol: as §2, §3

[13] = system: E. coli K91; test: Bacterial viability assay; format: cell-based, Escherichia coli; settings: one hour in PBS, CFU, ± SEM
Protocol: as §2, §3

| MIC of control antibiotics [1] [µg/mL] | Compound | change in A260 of culture supernatant (cytoplasmic leakage), control antibiotics [2] | Relative to chlorhexidine (factor by which cytotoxicity was reduced) [8] | Relative to chlorhexidine (factor by which cytotoxicity was reduced) [9] | IC50 [3] [µM] | IC50 [4] [µM] | IC50 [5] [µM] | IC50 [6] [µM] | CC50 [9] [µg/mL] | IC50 [10] [µM] | IC50 [11] [µM] | IC50 [12] [µM] | IC50 [13] [µM] | further results |
| --- | --- | --- | --- | --- | --- | --- | --- | --- | --- | --- | --- | --- | --- | --- |
| 0.5 | CNC(C)C1CCC(N)C(OC2C(N)CC(N)C(OC3OCC(C)(O)C(NC)C3O)C2O)O1 (centres unmarked) [gentamicin] | no increase in A260; also recorded: Significant increases in A260 were not seen | – | – | – | – | – | – | – | – | – | – | – | – |
| – | NCCCNCCCCNCCCN [Spermine] | – | 3.7 | >110 | – | – | – | – | – | – | – | – | – | IC50 ([3]; Staphylococcus aureus, 1 h): > 100 µM; IC50 ([4]; Staphylococcus aureus, 1 h): > 100 µM; IC50 ([5]; Acinetobacter baumannii, ATCC19606, 1 h): ≥ 100 µM; IC50 ([6]; Acinetobacter baumannii, ATCCBAA1605, 1 h): 79 ± 24 µM; CC50 ([7]; HaCaT keratinocytes): > 200 µg/mL; CC50 ([7]; MDA-MB-231 breast cancer cells (ATCC HTB-26), MDA-231): 10 µg/mL (≈ 49.4 µM); IC50 ([10]; Enterococcus faecalis, 1 h): > 100 µM; IC50 ([11]; Enterococcus faecalis, 1 h): > 100 µM; IC50 ([12]; Pseudomonas aeruginosa, 1 h): ≥ 100 µM; IC50 ([13]; Escherichia coli, 1 h): > 100 µM |
| – | N=C(NCCCCCCCCNc1nc(NCCCCCCCCN)nc(NCCCCCCCCNC(=N)Nc2ccccc2)n1)Nc1ccccc1 [TOAM-2ΦG] | – | – | 1.6 | 2.4 ± 0.1 | 0.6 ± 0.32 | 0.64 ± 0.19 | 0.96 ± 0.02 | 3.1 (≈ 4.17 µM) | 11 ± 3 | 6.1 ± 4.9 | 1.6 ± 0.4 | 0.75 ± 0.09 | – |
| – | NCCCCCCNc1nc(NCCCCCCN)nc(NCCCCCCN)n1 [THAM] | – | >290 | 100 | > 100 | > 100 | > 100 | > 100 | 200 (≈ 472 µM) | > 100 | > 100 | > 100 | > 100 | CC50 ([8]; MTS assay, concentration which killed 50% of the cells): >770 µg/mL |
| 32 | CC1(C)S[C@@H]2[C@H](NC(=O)[C@H](N)c3ccccc3)C(=O)N2[C@H]1C(=O)O [Ampicillin] | no increase in A260; also recorded: Significant increases in A260 were not seen | – | – | – | – | – | – | – | – | – | – | – | – |
